Experimental data taken from ChEMBL document CHEMBL3046000, “Design and synthesis of 1-(benzothiazol-5-yl)-1H-1,2,4-triazol-5-ones as protoporphyrinogen oxidase inhibitors” (Bioorg Med Chem, 2013).

Tests used:
[1] = test system: Chenopodium album; test: Post-emergence herbicidal activity against Chenopodium album seedlings assessed as plant growth inhibition at 75 g ai/ha measured 15 days after compound treatment under greenhouse conditions; assay type: functional; details: 360 h, read-out: GI
[2] = test system: Chenopodium album; test: Post-emergence herbicidal activity against Chenopodium album seedlings assessed as plant growth inhibition at 37.5 g ai/ha measured 15 days after compound treatment under greenhouse conditions; assay type: functional; details: 360 h, read-out: GI
[3] = test system: Chenopodium album; test: Post-emergence herbicidal activity against Chenopodium album seedlings assessed as plant growth inhibition at 150 g ai/ha measured 15 days after compound treatment under greenhouse conditions; assay type: functional; details: 360 h, read-out: GI
[4] = test system: Amaranthus retroflexus; test: Post emergence herbicidal activity against Amaranthus retroflexus seedlings assessed as plant growth inhibition at 75 g ai/ha measured 15 days after compound treatment under greenhouse conditions; assay type: functional; details: 360 h, read-out: GI
[5] = test system: Amaranthus retroflexus; test: Post emergence herbicidal activity against Amaranthus retroflexus seedlings assessed as plant growth inhibition at 37.5 g ai/ha measured 15 days after compound treatment under greenhouse conditions; assay type: functional; details: 360 h, read-out: GI
[6] = test system: Amaranthus retroflexus; test: Post emergence herbicidal activity against Amaranthus retroflexus seedlings assessed as plant growth inhibition at 150 g ai/ha measured 15 days after compound treatment under greenhouse conditions; assay type: functional; details: 360 h, read-out: GI
[7] = test system: Brassica juncea; test: Post-emergence herbicidal activity against Brassica juncea seedlings assessed as plant growth inhibition at 75 g ai/ha measured 15 days after compound treatment under greenhouse conditions; assay type: functional; details: 360 h, read-out: GI
[8] = test system: Brassica juncea; test: Post-emergence herbicidal activity against Brassica juncea seedlings assessed as plant growth inhibition at 37.5 g ai/ha measured 15 days after compound treatment under greenhouse conditions; assay type: functional; details: 360 h, read-out: GI
[9] = test system: Brassica juncea; test: Post-emergence herbicidal activity against Brassica juncea seedlings assessed as plant growth inhibition at 150 g ai/ha measured 15 days after compound treatment under greenhouse conditions; assay type: functional; details: 360 h, read-out: GI
[10] = test system: Setaria faberi; test: Post-emergence herbicidal activity against Setaria faberi (Giant Foxtail) seedlings assessed as plant growth inhibition at 75 g ai/ha measured 15 days after compound treatment under greenhouse conditions; assay type: functional; details: 360 h, read-out: GI
[11] = test system: Setaria faberi; test: Post-emergence herbicidal activity against Setaria faberi (Giant Foxtail) seedlings assessed as plant growth inhibition at 37.5 g ai/ha measured 15 days after compound treatment under greenhouse conditions; assay type: functional; details: 360 h, read-out: GI
[12] = test system: Setaria faberi; test: Post-emergence herbicidal activity against Setaria faberi (Giant Foxtail) seedlings assessed as plant growth inhibition at 150 g ai/ha measured 15 days after compound treatment under greenhouse conditions; assay type: functional; details: 360 h, read-out: GI
[13] = test system: Digitaria sanguinalis; test: Post-emergence herbicidal activity against Digitaria sanguinalis (hairy crabgrass) seedlings assessed as plant growth inhibition at 75 g ai/ha measured 15 days after compound treatment under greenhouse conditions; assay type: functional; details: 360 h, read-out: GI
[14] = test system: Digitaria sanguinalis; test: Post-emergence herbicidal activity against Digitaria sanguinalis (hairy crabgrass) seedlings assessed as plant growth inhibition at 37.5 g ai/ha measured 15 days after compound treatment under greenhouse conditions; assay type: functional; details: 360 h, read-out: GI
[15] = test system: Digitaria sanguinalis; test: Post-emergence herbicidal activity against Digitaria sanguinalis (hairy crabgrass) seedlings assessed as plant growth inhibition at 150 g ai/ha measured 15 days after compound treatment under greenhouse conditions; assay type: functional; details: 360 h, read-out: GI
[16] = test system: Echinochloa crus-galli; test: Post emergence herbicidal activity against Echinochloa crus-galli (barnyard grass) seedlings assessed as plant growth inhibition at 75 g ai/ha measured 15 days after compound treatment under greenhouse conditions; assay type: functional; details: 360 h, read-out: GI
[17] = test system: Echinochloa crus-galli; test: Post emergence herbicidal activity against Echinochloa crus-galli (barnyard grass) seedlings assessed as plant growth inhibition at 37.5 g ai/ha measured 15 days after compound treatment under greenhouse conditions; assay type: functional; details: 360 h, read-out: GI
[18] = test system: Echinochloa crus-galli; test: Post emergence herbicidal activity against Echinochloa crus-galli (barnyard grass) seedlings assessed as plant growth inhibition at 150 g ai/ha measured 15 days after compound treatment under greenhouse conditions; assay type: functional; details: 360 h, read-out: GI
[19] = molecular target: T1, Protoporphyrinogen oxidase, chloroplastic (Nicotiana tabacum, UniProt O24163); test: Inhibition of Nicotiana tabacum (tobacco) recombinant PPO assessed as protoporphyrin IX formation at room temperature by fluorimetric assay
T1 sequence (O24163 whole entry): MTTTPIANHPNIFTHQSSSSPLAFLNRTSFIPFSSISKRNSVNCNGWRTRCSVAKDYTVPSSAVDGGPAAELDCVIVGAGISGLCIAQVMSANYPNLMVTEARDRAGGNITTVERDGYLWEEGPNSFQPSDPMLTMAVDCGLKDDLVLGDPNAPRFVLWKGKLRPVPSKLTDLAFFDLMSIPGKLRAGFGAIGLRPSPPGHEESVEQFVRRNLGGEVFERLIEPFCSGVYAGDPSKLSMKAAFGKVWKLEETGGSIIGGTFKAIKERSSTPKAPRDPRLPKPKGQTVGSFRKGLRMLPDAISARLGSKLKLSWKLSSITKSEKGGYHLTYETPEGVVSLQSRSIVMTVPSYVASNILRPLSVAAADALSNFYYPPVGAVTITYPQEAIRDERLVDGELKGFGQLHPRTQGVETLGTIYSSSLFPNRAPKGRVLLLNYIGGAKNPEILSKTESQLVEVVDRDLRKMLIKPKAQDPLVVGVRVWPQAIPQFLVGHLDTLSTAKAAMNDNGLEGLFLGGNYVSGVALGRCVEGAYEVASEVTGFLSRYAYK

| Structure (SMILES) | inhibition of growth at 75 g/ha [1] | inhibition of growth at 37.5 g/ha [2] | inhibition of growth at 150 g/ha [3] | inhibition of growth at 75 g/ha [4] | inhibition of growth at 37.5 g/ha [5] | inhibition of growth at 150 g/ha [6] | inhibition of growth at 75 g/ha [7] | inhibition of growth at 37.5 g/ha [8] | inhibition of growth at 150 g/ha [9] | inhibition of growth at 75 g/ha [10] | inhibition of growth at 37.5 g/ha [11] | inhibition of growth at 150 g/ha [12] | inhibition of growth at 75 g/ha [13] | inhibition of growth at 37.5 g/ha [14] | inhibition of growth at 150 g/ha [15] | inhibition of growth at 75 g/ha [16] | inhibition of growth at 37.5 g/ha [17] | inhibition of growth at 150 g/ha [18] | Ki [19] |
| --- | --- | --- | --- | --- | --- | --- | --- | --- | --- | --- | --- | --- | --- | --- | --- | --- | --- | --- | --- |
| Cc1nn(-c2cc3nc(SCC(=O)O)sc3cc2F)c(=O)n1C(F)F | 80% | 80% | ≥ 90% | ≥ 90% | ≥ 90% | ≥ 90% | 80% | < 50% | ≥ 90% | 50% | 50% | ≥ 90% | < 50% | < 50% | ≥ 90% | 50% | 50% | ≥ 90% | 1.52 µM |
| Cc1nn(-c2cc3nc(SCC(=O)O)sc3cc2Cl)c(=O)n1C(F)F | ≥ 90% | 80% | ≥ 90% | ≥ 90% | 50% | ≥ 90% | ≥ 90% | 60% | ≥ 90% | < 50% | < 50% | ≥ 90% | < 50% | < 50% | ≥ 90% | < 50% | < 50% | ≥ 90% | 10.3 µM |
| Cc1nn(-c2cc3nc(SCCC(=O)O)sc3cc2Cl)c(=O)n1C(F)F | < 50% | < 50% | ≥ 90% | < 50% | < 50% | ≥ 90% | 60% | 50% | ≥ 90% | 60% | 60% | < 50% | < 50% | < 50% | < 50% | 50% | 50% | < 50% | 17.8 µM |
| Cc1nn(-c2cc3nc(SCCC(=O)O)sc3cc2F)c(=O)n1C(F)F | ≥ 90% | 80% | ≥ 90% | ≥ 90% | 60% | ≥ 90% | ≥ 90% | 60% | ≥ 90% | 50% | < 50% | < 50% | 50% | < 50% | 50% | < 50% | < 50% | 50% | 1.67 µM |
